Reference: PMC4503722, “Novel Phenotypic Outcomes Identified for a Public Collection of Approved Drugs from a Publicly Accessible Panel of Assays” (PLoS ONE, 2015)

Assays:
[1] = tested on: SNU-C1; assay: cells; format: cell-based; conditions: assay number 30; for IC50: read-out: Basal_Viability ATP SNU-C1 summarized IC50
[2] = tested on: HT-29; assay: cells; format: cell-based; conditions: assay number 28; for IC50: read-out: Basal_Viability ATP HT-29 summarized IC50
[3] = tested on: HCT116; assay: cells; format: cell-based; conditions: assay number 25, basal; for IC50: read-out: Basal_Viability ATP HCT116 summarized IC50
[4] = tested on: RKO; assay: cells; format: cell-based; conditions: assay number 29; for IC50: read-out: Basal_Viability ATP RKO summarized IC50
[5] = tested on: ECFC/ADSC co-culture cell nuclei number; conditions: for IC50: read-out: VEGF_ADSC\ECFC Angio Hoechst NucArea summarized IC50
[6] = tested on: SW480; assay: cells; format: cell-based; conditions: assay number 24; for IC50: read-out: Basal_Viability ATP SW480 summarized IC50
[7] = tested on: endothelial tube formation in co-cultures of ECFCs and ADSCs treated with VEGF; assay: cells; format: cell-based, human; conditions: for IC50: read-out: VEGF_ADSC\ECFC Angio CD31 TubeArea summarized IC50
[8] = tested on: DLD-1; assay: cells; format: cell-based; conditions: assay number 23; for IC50: read-out: Basal_Viability ATP DLD-1 summarized IC50
[9] = tested on: Colo320; assay: cells; format: cell-based; conditions: assay number 27; for IC50: read-out: Basal_Viability ATP Colo 320 summarized IC50
[10] = tested on: HCT116 cells treated with a GSK3β inhibitor; assay: cells; format: cell-based; conditions: assay number 26; GSK3b inhibitor pretreated

Nc1ncn([C@@H]2O[C@H](CO)[C@@H](O)[C@H]2O)c(=O)n1 [NCGC00090851-10]
Basal_Viability ATP SNU-C1 IC50/EC50 [1]: 1.8027 µM | Basal_Viability ATP HT-29 IC50/EC50 [2]: 12.5329 µM | Basal_Viability ATP HCT116 IC50/EC50 [3]: 3.0364 µM | Basal_Viability ATP RKO IC50/EC50 [4]: 7.4004 µM | VEGF_ADSC\ECFC Angio Hoechst NucArea IC50/EC50 [5]: > 10 µM | Basal_Viability ATP SW480 IC50/EC50 [6]: > 6.6667 µM | VEGF_ADSC\ECFC Angio CD31 TubeArea IC50/EC50 [7]: > 10 µM | Basal_Viability ATP DLD-1 IC50/EC50 [8]: 2.5502 µM | Basal_Viability ATP Colo 320 IC50/EC50 [9]: 12.3406 µM

CN(C)[C@@H](CCOc1cccc2ccccc12)c1ccccc1 [NCGC00253658-01]
Basal_Viability ATP SNU-C1 IC50/EC50 [1]: 12.8035 µM | Basal_Viability ATP HT-29 IC50/EC50 [2]: > 20 µM | Basal_Viability ATP HCT116 IC50/EC50 [3]: > 20 µM | Basal_Viability ATP RKO IC50/EC50 [4]: 8.1098 µM | Basal_Viability ATP SW480 IC50/EC50 [6]: > 20 µM | Basal_Viability ATP DLD-1 IC50/EC50 [8]: > 20 µM | Basal_Viability ATP Colo 320 IC50/EC50 [9]: > 20 µM | GSK3b inh pretreated_Viability ATP HCT116 IC50/EC50 [10]: 9.8615 µM

CCCCCCCCCCCCCCCCOP(=O)([O-])OCC[N+](C)(C)C [NCGC00095169-05]
Basal_Viability ATP SNU-C1 IC50/EC50 ([1]; basal): 0.9649 µM | Basal_Viability ATP HT-29 IC50/EC50 ([2]; basal): 1.955 µM | Basal_Viability ATP HCT116 IC50/EC50 [3]: 3.393 µM | Basal_Viability ATP RKO IC50/EC50 ([4]; basal): 0.4372 µM | Basal_Viability ATP SW480 IC50/EC50 ([6]; basal): 0.4782 µM | Basal_Viability ATP DLD-1 IC50/EC50 ([8]; basal): 1.23 µM | Basal_Viability ATP Colo 320 IC50/EC50 ([9]; basal): 1.49 µM | GSK3b inh pretreated_Viability ATP HCT116 IC50/EC50 [10]: 1.476 µM

CC(=O)[O][Hg][c]1ccccc1 [NCGC00091050-09]
IC50 ([1]; basal): 0.192 µM | IC50 ([2]; basal): 0.799 µM | IC50 [3]: 2.8 µM | IC50 ([4]; basal): 1.2 µM | IC50 [5]: 0.883 µM | IC50 ([6]; basal): 0.543 µM | IC50 [7]: 0.53 µM | IC50 ([8]; basal): 0.736 µM | IC50 ([9]; basal): 1.3 µM

CN1CCC(=C2c3ccccc3C=Cc3ccccc32)CC1 [NCGC00015252-12]
Basal_Viability ATP SNU-C1 IC50/EC50 ([1]; basal): 10.7827 µM | Basal_Viability ATP HT-29 IC50/EC50 ([2]; basal): > 20 µM | Basal_Viability ATP HCT116 IC50/EC50 [3]: > 20 µM | Basal_Viability ATP RKO IC50/EC50 ([4]; basal): 11.2853 µM | Basal_Viability ATP SW480 IC50/EC50 ([6]; basal): 5.9167 µM | Basal_Viability ATP DLD-1 IC50/EC50 ([8]; basal): > 20 µM | Basal_Viability ATP Colo 320 IC50/EC50 ([9]; basal): > 20 µM | GSK3b inh pretreated_Viability ATP HCT116 IC50/EC50 [10]: > 20 µM

C=Cc1c(C)c2cc3nc(cc4[nH]c(cc5nc(cc1[nH]2)C(C)=C5CCC(=O)O)c(CCC(=O)OC)c4C)[C@@]1(C)C3=CC=C(C(=O)OC)[C@@H]1C(=O)OC [NCGC00344558-01]
Basal_Viability ATP SNU-C1 IC50/EC50 ([1]; basal): 5.854 µM | Basal_Viability ATP HT-29 IC50/EC50 ([2]; basal): 3.9401 µM | Basal_Viability ATP HCT116 IC50/EC50 [3]: 5.6514 µM | Basal_Viability ATP RKO IC50/EC50 ([4]; basal): 3.5296 µM | Basal_Viability ATP SW480 IC50/EC50 ([6]; basal): > 6.667 µM | Basal_Viability ATP Colo 320 IC50/EC50 ([9]; basal): 9.6205 µM | GSK3b inh pretreated_Viability ATP HCT116 IC50/EC50 [10]: 4.2601 µM

Cc1c(C)c2c(c(C)c1O)CC[C@@](C)(CCC[C@H](C)CCC[C@H](C)CCCC(C)C)O2 [NCGC00142625-10]
IC50 ([1]; basal): > 20 µM | IC50 ([2]; basal): > 20 µM | IC50 [3]: > 20 µM | IC50 ([4]; basal): 2.61 µM | IC50 [5]: > 10 µM | IC50 ([6]; basal): > 20 µM | IC50 [7]: > 10 µM | IC50 ([8]; basal): > 20 µM | IC50 ([9]; basal): > 20 µM

O=C(O)C1(C(=O)O)CCC1.[NH2-].[NH2-].[Pt+2] [NCGC00263858-02]
Basal_Viability ATP SNU-C1 IC50/EC50 ([1]; basal): > 20 µM | Basal_Viability ATP HT-29 IC50/EC50 ([2]; basal): > 20 µM | Basal_Viability ATP HCT116 IC50/EC50 [3]: > 20 µM | Basal_Viability ATP RKO IC50/EC50 ([4]; basal): > 20 µM | VEGF_ADSC\ECFC Angio Hoechst NucArea IC50/EC50 [5]: > 10 µM | Basal_Viability ATP SW480 IC50/EC50 ([6]; basal): > 20 µM | VEGF_ADSC\ECFC Angio CD31 TubeArea IC50/EC50 [7]: > 10 µM | Basal_Viability ATP DLD-1 IC50/EC50 ([8]; basal): > 20 µM | Basal_Viability ATP Colo 320 IC50/EC50 ([9]; basal): > 20 µM
